Assay results from patent US20250243176A1, “(S)-1-(1-ACRYLOYLPIPERIDIN-3-YL)-2-FLUORO-5,6,7,8,9,10-HEXAHYDROCYCLO HEPTA[B]INDOLE-4-CARBOXAMIDE, AND RELATED CRYSTALLINE FORMS, COMPOSITIONS, AND METHODS THEREOF” (GB005, Inc., priority 2021, published 2025).
In brackets after ≈: the same amount, converted by molar mass. Where two headings read alike, the source gives them in different places.

Columns and labels:
[1] = target: T1, Bruton's tyrosine kinase (BTK) (Homo sapiens, UniProt Q06187); experiment: BTK cell-free enzymatic assay; assay type: biochemical
T1 construct: from tissue; host or cells: whole blood
T1 sequence (Q06187 whole entry, species assumed): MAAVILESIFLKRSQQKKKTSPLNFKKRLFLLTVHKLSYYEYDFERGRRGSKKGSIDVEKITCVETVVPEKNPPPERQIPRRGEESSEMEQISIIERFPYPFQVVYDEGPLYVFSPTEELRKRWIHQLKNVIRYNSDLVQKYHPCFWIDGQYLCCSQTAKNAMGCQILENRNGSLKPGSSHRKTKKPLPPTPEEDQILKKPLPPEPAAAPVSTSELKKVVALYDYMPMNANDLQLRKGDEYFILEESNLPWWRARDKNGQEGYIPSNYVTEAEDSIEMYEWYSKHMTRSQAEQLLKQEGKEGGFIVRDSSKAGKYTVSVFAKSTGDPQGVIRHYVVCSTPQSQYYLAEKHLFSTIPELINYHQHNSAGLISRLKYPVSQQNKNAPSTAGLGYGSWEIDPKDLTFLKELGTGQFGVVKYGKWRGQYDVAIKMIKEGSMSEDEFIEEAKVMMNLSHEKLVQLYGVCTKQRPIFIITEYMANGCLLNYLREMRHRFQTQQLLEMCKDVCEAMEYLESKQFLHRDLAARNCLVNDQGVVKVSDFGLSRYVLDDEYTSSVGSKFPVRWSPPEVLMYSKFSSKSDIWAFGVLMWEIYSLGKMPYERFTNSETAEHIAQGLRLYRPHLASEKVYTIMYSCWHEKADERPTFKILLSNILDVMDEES
From the text: (§1) (S)-1-(1-acryloylpiperidin-3-yl)-2-fluoro-5,6,7,8,9,10-hexahydrocyclohepta[b]indole-4-carboxamide, hereinafter referred to as “Compound 1”, is an orally available, selective, potent inhibitor of Bruton's tyrosine kinase (BTK), thereby providing potential treatment options in BTK-driven diseases. The potency of Compound 1 for BTK inhibition is in the nM range in both cell-free enzymatic and whole blood functional assays.

[2] = target: T1, Bruton's tyrosine kinase (BTK); experiment: BTK whole blood functional assay; assay type: cell-based
From the text: as §1

[3] = CNS penetration (background statement)
From the text: as §1

[4] = Solubility testing in aqueous media at various pH (Form III); assay type: physicochemical; conditions: thermodynamic from solid
Experimental: 0.833 mL concentrated hydrochloric acid was diluted to 100 mL with water (pH=1.0).
Added appropriate amount of water to 0.1N HCl, adjust the pH to 1.2.
KH2PO4 (1360.0 mg) and NaOH (310.0 mg) are mixed in a 200 mL volumetric flask. Water was added to dissolve the solid and dilute to the volume. The flask was shaken to achieve good mixing. (pH=7.42).
Solubility was measured in pH 1.0 water, pH 1.2 buffer and pH 7.4 buffer at room temperature and 37° C. About 10-15 mg of sample was weighed into sample vials and then 2.0/3.0 mL of 0.1 N HCl solution, pH 1.2 buffer and pH 7.4 buffer media, and water were added, respectively. Samples were run in duplicate for each medium. The suspensions were shaken at room temperature or 37° C. Residual solid was collected for XRPD analysis, though no form change occurred during testing. In all instances, very low solubility was observed.

[5] = Phase 1 single ascending dose plasma pharmacokinetics; assay type: in vivo, human; conditions: for AUC(0-inf) / Cmax / half-life / Tmax: both sexes, human, plasma, fed; for AUC(0-inf) / Cmax: mean; for dose proportionality of exposure (AUCinf): single dose
Experimental: The study investigates the administration of Compound 1 to healthy human subjects, to evaluate the safety, tolerability and PK of single and multiple-escalating doses. Additional objectives include assessing the effect of formulation on PK, the effect of food on PK, the effect of a CYP3A inhibitor on PK and the effect of Compound 1 on CYP3A activity. PK parameters including AUC, AUC, Cmax, and Tmax are determined. An additional exploratory objective evaluates pharmacodynamics, as the time-course of BTK inhibition. The study is conducted with up to 144 healthy male and female subjects, aged 18-55 years, with a body weight over 48 kg, BMI 18.5-30.0 kg/m^2, with no clinically significant abnormalities.
Part A is a randomized, double-blind, placebo-controlled, single- and -multiple-dose study with staggered dose escalation, administered in the fed state (standard moderate-fat meal). Part A consists of […] (up to 7 single-ascending dose [SAD] cohorts [Cohorts 1-6 & 14], and up to 3 multiple ascending dose [MAD] cohorts [Cohorts 7-9]). Subjects are randomized in a 3:1 ratio per cohort to receive either: Compound 1 Formulation A (N=6 for Cohorts 1-4 and N=9 for Cohorts 5-9 & 14); or placebo (PBO; N=2 for Cohorts 1-4 and N=3 for Cohorts 5-9 & 14).
• Cohorts 1-4: Day 1, all subjects receive a single dose of Formulation A Compound 1 or placebo. • Cohorts 5, 6 & 14: Day −1, all subjects receive placebo (establish baseline ECG assessments). Day 1, subjects receive a single oral dose of Compound 1 or placebo.
Safety is assessed throughout the study and PK and PD are characterized using serial blood samples collected up to 48 hours post-dose for Compound 1 plasma concentrations, BTK target occupancy (TO) and target engagement (TE). Cerebrospinal fluid (CSF) samples are collected at 2 hours post-dose to characterize the relationship between Compound 1 plasma concentrations and CNS penetrance (CSF/Unbound plasma concentration). Compound 1 PK parameters (e.g., AUClast, AUCinf, Cmax, Tmax, t1/2) are estimated by standard noncompartmental methods.
Results: Preliminary pharmacokinetic results from […] are presented, including […] (7 receiving 5 mg, 8 receiving 15 mg, 8 receiving 45 mg, 8 receiving 5 mg+10 mg placebo, 12 receiving 100 mg and 12 receiving 200 mg: randomized in a 3:1 ratio to receive Compound 1 or placebo) in a fed state (moderate-fat meal). […] Preliminary PK parameters are presented in Table 45 (all pharmacokinetic parameters of Table 45 are reported as Mean (% coefficient of variation), except for Tmax and t/2, which are reported as Median (Min, Max)), and in FIG. 25 presenting the mean (SD) plasma concentration-time profiles of Compound 1.

[6] = pH 7.4 buffer (KH2PO4/NaOH), aqueous buffer, pH 7.4 Buffer, 37° C.
[7] = pH 7.4 buffer (KH2PO4/NaOH), aqueous buffer, pH 7.4 Buffer, RT
[8] = simulated gastric fluid, pH 1.0 (0.1N HCl), RT
[9] = simulated gastric fluid, pH 1.2 Buffer, 37° C.
[10] = oral, 5 mg, Cohort 1, 5 mg single dose
[11] = oral, 5 mg, Cohort 4, 5 mg (+10 PBO) single dose
[12] = oral, 15 mg, Cohort 2, 15 mg single dose
[13] = oral, 45 mg, Cohort 3, 45 mg single dose
[14] = oral, 100 mg, Cohort 5, 100 mg single dose
[15] = oral, 200 mg, Cohort 6, 200 mg single dose

Compound: C=CC(=O)N1CCC[C@@H](c2c(F)cc(C(N)=O)c3[nH]c4c(c23)CCCCC4)C1 [Compound 1, (S)-1-(1-acryloylpiperidin-3-yl)-2-fluoro-5,6,7,8,9,10-hexahydrocyclohepta[b]indole-4-carboxamide]
- potency for BTK inhibition [1]: nM range
- potency for BTK inhibition [2]: nM range
- CNS penetration [3]: penetrant
- solubility at 4 h [4, 6]: 0.8 µg/mL (≈ 2.09 µM)
- solubility at 24 h [4, 6]: 0.8 µg/mL (≈ 2.09 µM)
- solubility at 24 h [4, 7]: 0.8 µg/mL (≈ 2.09 µM)
- solubility at 48 h [4, 7]: 1.7 µg/mL (≈ 4.43 µM)
- solubility at 4 h [4, 8]: 0.7 µg/mL (≈ 1.83 µM)
- solubility at 24 h [4, 8]: 0.8 µg/mL (≈ 2.09 µM)
- solubility at 48 h [4, 8]: 1.6 µg/mL (≈ 4.17 µM)
- solubility at 4 h [4, 9]: 0.9 µg/mL (≈ 2.35 µM)
- solubility at 24 h [4, 9]: 0.9 µg/mL (≈ 2.35 µM)
- solubility at 4 h ([4]; Water (pH 5.0), 37° C.): 0.6 µg/mL (≈ 1.56 µM)
- solubility at 24 h ([4]; Water (pH 5.0), 37° C.): 0.7 µg/mL (≈ 1.83 µM)
- AUC(0-inf) [5, 10]: 62.1 ng·h/mL
- Cmax [5, 10]: 22.5 ng/mL
- half-life ([5]; oral, 5 mg, Cohort 1, 5 mg single dose, median, read-out: T1/2 (converted)): 2.77 h
- Tmax ([5]; oral, 5 mg, Cohort 1, 5 mg single dose, median, read-out: Tmax): 2 h
- AUC(0-inf) [5, 11]: 121 ng·h/mL
- Cmax [5, 11]: 36 ng/mL
- half-life ([5]; oral, 5 mg, Cohort 4, 5 mg (+10 PBO) single dose, median, read-out: T1/2 (converted)): 3.33 h
- Tmax ([5]; oral, 5 mg, Cohort 4, 5 mg (+10 PBO) single dose, median, read-out: Tmax): 1.75 h
- AUC(0-inf) [5, 12]: 339 ng·h/mL
- Cmax [5, 12]: 124 ng/mL
- half-life ([5]; oral, 15 mg, Cohort 2, 15 mg single dose, median, read-out: T1/2 (converted)): 3.6 h
- Tmax ([5]; oral, 15 mg, Cohort 2, 15 mg single dose, median, read-out: Tmax): 1 h
- AUC(0-inf) [5, 13]: 859 ng·h/mL
- Cmax [5, 13]: 283 ng/mL
- half-life ([5]; oral, 45 mg, Cohort 3, 45 mg single dose, median, read-out: T1/2 (converted)): 3.4 h
- Tmax ([5]; oral, 45 mg, Cohort 3, 45 mg single dose, median, read-out: Tmax): 1.5 h
- AUC(0-inf) [5, 14]: 2290 ng·h/mL
- Cmax [5, 14]: 555 ng/mL
- half-life ([5]; oral, 100 mg, Cohort 5, 100 mg single dose, median, read-out: T1/2 (converted)): 4.29 h
- Tmax ([5]; oral, 100 mg, Cohort 5, 100 mg single dose, median, read-out: Tmax): 1.5 h
- AUC(0-inf) [5, 15]: 4480 ng·h/mL
- Cmax [5, 15]: 814 ng/mL
- half-life ([5]; oral, 200 mg, Cohort 6, 200 mg single dose, median, read-out: T1/2 (converted)): 4.5 h
- Tmax ([5]; oral, 200 mg, Cohort 6, 200 mg single dose, median, read-out: Tmax): 3 h
- Tmax ([5]; po, healthy subjects, single oral dose, SAD cohorts, read-out: mean plasma Tmax): 1 to 3 h
- half-life ([5]; po, healthy subjects, single oral dose, SAD cohorts, read-out: terminal half-life): 3 to 4 h
- dose proportionality of exposure (AUCinf) ([5]; from 5 to 15 mg): greater than dose-proportional
- dose proportionality of exposure (AUCinf) ([5]; from 15 to 200 mg): near dose-proportional
